Measured values reported in US20260284214A1, “EXATECAN DERIVATIVE AND ANTIBODY-DRUG CONJUGATE THEREOF” (priority 2023, published 2026).
Like-named read-outs stand apart in the source and are kept apart here. Marks after values point to notes of the source that are not given here.

How the values were obtained:
SD rats = test: Toxicity comparison after repeated administration to SD rats for 7 days (hematology); assay type: in vivo; conditions: 0.1 mg/kg iv for 7 consecutive days, end of study
Description: SD rats were taken as test animals to study toxic reactions after intravenous injection of the compounds of the present disclosure to male and female SD rats at a dosage of 0.1 mg/kg for 7 consecutive days.
• Species: male and female SD rats (5 female rats and 5 male rats/group) • Grade: SPF grade • Weight: ♂ 252.0-287.4 g and ♀ 185.7-224.3 g • Age: 8-12 weeks • Source: Zhejiang Vital River Laboratory Animal Technology Co., Ltd.
Male and female SD rats were injected with the test sample solution, and Compound 2 of the example and the Dxd were given in a dosage of 0.1 mg/kg and a dosage volume of 10 mL/kg.
Preparation of test sample solution: the test sample was dissolved with a solvent (5% DMSO+95% Solutol HS-15 in water).
About 0.2 mL of blood was collected from the jugular sinus of the animals into an anticoagulant tube containing an anticoagulant (EDTA-K2) on D3 after administration, and all to-be-dissected animals were fasted for about 12 hours on the eve of D8 before dissection. Dying animals were euthanized, about 2 mL of blood was collected from abdominal aorta into an anticoagulant tube containing an anticoagulant (EDTA-K2) at the time of dissection, and hematological indexes were detected by a Sysmex XN-1000 hemocytometer. Specific detection indexes were as follows.

[1] = system: KPL-4 (human breast cancer cells); test: Cell-proliferation inhibitory activity (CellTiter-Glo, 3 days); assay type: cell-based; conditions: KPL-4 cells
Excerpt: (§1) The experiment was intended to detect in-vitro inhibitory activities of the compounds of the present disclosure on NCI-N87 (human gastric cancer cells), KPL-4 (human breast cancer cells) or MDA-MB-468 (human breast cancer cells).
(§2) Human gastric cancer cells NCI-N87 (ATCC, article number: CRL-5822), human breast cancer cells MDA-MB-468 (Cell Bank of the Committee on Type Culture Collection, Chinese Academy of Sciences, article number: TCHu136) and human breast cancer cells KPL-4 (Nanjing Cobioer Biosciences Co., Ltd., article number: CBP60379) were washed with PBS, then the cells were digested with 0.25% Trypsin-EDTA trypsin for about 3-10 minutes, and the digestion was terminated with a complete cell culture medium. The cells were centrifuged at 1000 rpm for 5 minutes, the supernatant was discarded, and the cells were resuspended with a complete cell culture medium, counted by a cell counter, and adjusted to a required density. Each well was added with 90.0 μL of the cell suspension according to 3000 cells per well, and the cell plate was placed into a 5% CO2 cell incubator at 37° C. to incubate the cells overnight.
(§3) In the experiment, a DMSO control group, a positive control group and a test sample group were provided respectively, and the compound Dxd was used as a positive control compound. The cell plate was taken out of the incubator to observe a cell adhesion state, and after cell adhesion, each well was added with 10.00 μL of the sample (starting from a final concentration 10 μM, diluted 5 times, 9 concentrations), shaken gently, and then placed into an incubator to incubate the cells.
(§4) After incubation for 3 days, each well was added with a CellTiter-Glo™ (Promega, article number: G7572/G7571) working solution according to 100.0 μL/well and oscillated by a constant-temperature oscillator to lyse the cells, and 10 minutes later, the plate was read on a microplate reader.
(§5) A calculation formula of a cell-proliferation inhibition rate was: cell-proliferation inhibition rate=(1−RLUtest sample well/RLUDMSO control well)×100%.
(§6) Data analysis: a graph was made by GraphPad Prism 8.0 software with a Log value of a sample concentration as an abscissa and Inhibition % as an ordinate, and data were subjected to Nonlinear regression (curve fit) analysis to obtain an IC50 value of each test sample.

[2] = system: MDA-MB-468 (human breast cancer cells); test: as above; assay type: cell-based; conditions: MDA-MB-468 cells
Excerpt: as §1, §2, §3, §4, §5, §6

[3] = system: NCI-N87 (human gastric cancer cells); test: as above; assay type: cell-based
Excerpt: as §1, §2, §3, §4, §5, §6

FaDu cells = test: Cell inhibitory activity experiment of cytotoxic drug (CellTiter-Glo, 72 hours); assay type: cell-based, human
Description: (§7) Human pancreatic adenocarcinoma cells BxPC-3 (ATCC, article number: CRL-1687) and human pharyngeal squamous cell carcinoma cells FaDu (ATCC, article number: HTB-43) were washed with PBS, then the cells were digested with 0.25% Trypsin-EDTA trypsin for about 3 minutes, and the digestion was terminated with a complete cell culture medium. The cells were centrifuged at 1000 rpm for 5 minutes, the supernatant was discarded, and the cells were resuspended with a complete cell culture medium, counted by a cell counter, and adjusted to a required density. Each well was added with 50 μL of the cell suspension according to 3000 cells per well, and the cell plate was placed into a 5% CO2 cell incubator at 37° C. to incubate the cells for 12-16 hours.
(§8) The cell plate was taken out of the incubator to observe a cell adhesion state, and after cell adhesion, each well was added with 50 μL of the sample (starting from 10 μM, diluted 5 times, 9 concentrations), shaken gently, and then placed into an incubator to incubate the cells for 72 hours. Each well was added with a Cell Titer-GLO™ (Promega, article number: G7572) working solution according to 100 μL/well and shaken gently to lyse the cells, and the plate was read on a microplate reader.
(§9) Data analysis: a graph was made by GraphPad Prism 7.0 software with a Log value of a sample concentration as an abscissa and Cytotoxicity % as an ordinate, and data were subjected to Nonlinear regression (curve fit) analysis to obtain an IC50 value of each compound.

BxPC-3 cells = test: as above; assay type: cell-based, human
Description: as §7, §8, §9

| Compound | #MONO, change compared with the control group (SD rats; ♀ SD rats) [%**] | #RETIC, change compared with the control group (SD rats; ♀ SD rats) [%**] | HCT, change compared with the control group (SD rats; ♀ SD rats) [%**] | HGB, change compared with the control group (SD rats; ♀ SD rats) [%**] | RBC, change compared with the control group (SD rats; ♀ SD rats) [%**] | #EOS, change compared with the control group (SD rats; ♂ SD rats) | #MONO, change compared with the control group (SD rats; ♂ SD rats) [%**] | #NEUT, change compared with the control group (SD rats; ♂ SD rats) [%**] | #RETIC, change compared with the control group (SD rats; ♂ SD rats) | IC50 ([1]; Homo sapiens, KPL4, 72 h) [nM] | IC50 ([2]; Homo sapiens, 72 h) [nM] | IC50 ([3]; Homo sapiens, 72 h) [nM] | also measured |
| --- | --- | --- | --- | --- | --- | --- | --- | --- | --- | --- | --- | --- | --- |
| CC[C@@]1(O)C(=O)OCc2c1cc1n(c2=O)Cc2c-1nc1cc(F)c(C)c3c1c2[C@@H](NC(=O)CO)CC3 [Dxd] | −71.3 | −96.9 | −15.8 | −12.7 | −13.4 | −70.2%* | −77.2 | −66.9 | −95.5%* | 32.3 | 2.71 | 22.6 | #EOS, change compared with the control group (SD rats; ♀ SD rats): −84.44%**; #LUC, change compared with the control group (SD rats; ♀ SD rats): −66.9%**; #NEUT, change compared with the control group (SD rats; ♀ SD rats): −66.1%*; MCHC, change compared with the control group (SD rats; ♀ SD rats): 3.6%**; WBC, change compared with the control group (SD rats; ♀ SD rats): −47.6%*; #BASO, change compared with the control group (SD rats; ♂ SD rats): −82.1%*; HCT, change compared with the control group (SD rats; ♂ SD rats): −15.7%**; HGB, change compared with the control group (SD rats; ♂ SD rats): −12.8%**; MCHC, change compared with the control group (SD rats; ♂ SD rats): 3.2%**; RBC, change compared with the control group (SD rats; ♂ SD rats): −15.3%** |
| C#CCN(CCO)C(=O)N[C@H]1CCc2c(C)c(F)cc3nc4c(c1c23)Cn1c-4cc2c(c1=O)COC(=O)[C@]2(O)CC [Example 2] | −54.1 | −86.4 | −12.0 | −10.7 | −10.9 | −71.4%** | −68.3 | −72.2 | −87.3%** |  |  |  | IC50 (FaDu cells): 1.49 nM; IC50 (BxPC-3 cells): 0.96 nM; IC50 [1]: 29.6 nM; IC50 [2]: 2.41 nM; IC50 [3]: 11 nM |
| C=CCN(CCO)C(=O)N[C@H]1CCc2c(C)c(F)cc3nc4c(c1c23)Cn1c-4cc2c(c1=O)COC(=O)[C@]2(O)CC [Example 3, 1-allyl-3-((1S,9S)-9-ethyl-5-fluoro-9-hydroxy-4-methyl-10,13-dioxo-2,3,9,10,13,15-hexahydro-1H,12H-benzo[de]pyrano[3′,4′:6,7]indolizino[1,2-b]quinolin-1-yl)-1-(2-hydroxyethyl)urea] |  |  |  |  |  |  |  |  |  | 8.82 | 0.99 | 6.39 | IC50 (FaDu cells; Homo sapiens): 1.09 nM; IC50 (BxPC-3 cells; Homo sapiens): 0.76 nM |
